# Source: patent EP0819136B1, “MDP DERIVATIVES AND CONJUGATES HAVING HAEMATOPOIETIC FUNCTION STIMULATING ACTIVITY, AND COMPOSITIONS CONTAINING SAME” (VACSYN S.A., priority 1995, dated 1996)
# Experiments:
# [1] = tested on: neutrophiles circulants, leucocytes circulants, monocytes circulants, myélocytes circulants; test: Comparison of Muradimétide and GM-CSF on circulating cell counts after i.v. AZT (Example 9, figures 4-7); assay type: in vivo, souris Swiss femelles; conditions: AZT 40 mg/kg i.v. days 0-3; Muradimétide 25 mg/kg or mGM-CSF 125 µg/kg i.v. 4 h before AZT
# Description: La figure 4 représente les effets comparés du Muradimétide et du rmGM-CSF (recombinant mouse GM-CSF) sur la numération des neutrophiles circulants après administration d'AZT.
# La figure 5 représente la même comparaison sur la numération des leucocytes circulants.
# La figure 6 représente la même comparaison sur la numération de monocytes circulants.
# La figure 7 représente la même comparaison sur la numération des myélocytes circulants.
# Lorsque les souris ayant reçu un traitement par l'AZT sont traitées par du GM-SCF dans les mêmes conditions que celles utilisées pour le Muradimétide, les comptages de leucocytes et de neutrophiles ne présentent pas d'augmentation contrairement à ce qui est observé lorsque la combinaison AZT-Muradimétide est utilisée. Par contre, on observe une augmentation du nombre des monocytes. Les figures 4, 5, 6, et 7 indiquent l'effet d'un traitement des souris avec du Muradimétide ou avec du mGM-CSF sur les changements respectivement dans les neutrophiles circulants, dans les leucocytes circulants ou dans les monocytes circulants ou dans les myélocytes circulants après une administration intraveineuse d'AZT.
# Les souris Swiss femelles ont été traitées par voie intra-veineuse avec 40 mg par kg d'AZT aux jours 0, 1, 2 et 3. […]
# CSH = CSH mobilisation in cyclophosphamide-treated mice after oral AZT, MDM or both (Example 6, figure 13); assay type: in vivo, souris; conditions: cyclophosphamide 200 mg/kg s.c. day 0; oral MDM 25 mg/kg alone days 0, 1, 2, 3
# Procedure: La figure 13 représente une expérience similaire sur des souris normales qui ont préalablement reçu un traitement par une drogue cytotoxique : la cyclophosphamide.
# L'effet du traitement ci-dessus pour compenser l'effet cytotoxique des chimiothérapies a été étudié en traitant les souris par le cyclophosphamide.
# Les souris traitées par une simple injection sous-cutanée de cyclophosphamide (dose de 200 mg/kg) au jour 0 ont été ensuite divisées entre 4 groupes et ont reçu oralement, outre de l'eau physiologique (X), de l'AZT à 50 mg/kg (□), du MDM à 25 mg/kg (Δ) ou du mélange de ceux-ci (O). Le traitement oral a été effectué aux jours 0, 1, 2 et 3 et les numérations cellulaires ont été évaluées jusqu'à 14 jours après le commencement du traitement. Les résultats sont indiqués dans la figure 13. Là-encore, il apparaît évident qu'une très forte mobilisation a lieu surtout en présence du mélange d'AZT et de MDM.
# myélocytes circulants = test: Circulating myelocytes 24 h after 4 daily oral administrations of AZT and/or Muradimétide (Example 4, Table 3); assay type: in vivo, souris; conditions: for Nbre de myélocytes circulants: 24 h after 4 daily administrations
# Procedure: Le tableau 3 ci-dessous et la figure 11 indiquent l'effet d'un traitement per os des souris avec du Muradimétide avant, en même temps ou après l'AZT administré à 50 mg par kg, sur le nombre de myélocytes circulants testés 24 heures après 4 administrations quotidiennes. Tableau 3
# Le nombre moyen de myélocytes circulant avant le traitement se situe entre 3 et 15 X 10^4 cellules par ml dans les 5 groupes.
# La « P-value » a été calculée par le test Mann Whitney U Rank.
# NS signifie que la différence n'est pas significative. Ce tableau confirme que l'augmentation des myélocytes circulants est d'environ 200 quand il y a effet conjoint de l'AZT et du Muradimétide. Les deux constituants de la combinaison ont été administrés per os soit simultanément soit à des temps séparés.
smiles,measurement,setting,value
"COC(=O)CC[C@@H](NC(=O)[C@H](C)NC(=O)[C@@H](C)O[C@H]1[C@H](O)[C@@H](CO)OC(O)[C@@H]1NC(C)=O)C(=O)OC (stereo partly drawn) [Muradimétide, Nac-Mur-L-Ala-D-Glu-[OCH3]-OCH3]",comptages de leucocytes et de neutrophiles,[1],effet nettement marqué
same,élévation / mobilisation des CSH dans le sang (myélocytes circulants),[1],très forte élévation
same,numération des neutrophiles circulants,CSH,effet similaire mais nettement moins marqué
same,Nbre de myélocytes circulants,myélocytes circulants; AZT 50mg/Kg p.o. at 0 h + Muradimetide 25mg/Kg p.o. at 0 h,215 ± 51 x 10^4/ml
same,Nbre de myélocytes circulants,myélocytes circulants; AZT 50mg/Kg p.o. at 0 h + Muradimetide 25mg/Kg p.o. at -4 h,194 ± 50 x 10^4/ml
same,Nbre de myélocytes circulants,myélocytes circulants; AZT 50mg/Kg p.o. at -4 h + Muradimetide 25mg/Kg p.o. at 0 h,187 ± 42 x 10^4/ml
same,Nbre de myélocytes circulants,myélocytes circulants; Muradimetide 25mg/Kg p.o. alone at 0 h,17 ± 15 x 10^4/ml
same,augmentation des myélocytes circulants,"myélocytes circulants; joint effect of AZT 50 mg/kg and Muradimétide 25 mg/kg p.o., simultaneously or at separate times",~200
